One assay has as its system IKKε-mediated phosphorylation of IRF3. The assay is described as follows: ELISA for in-situ phosphorylation of IRF3 (phospho-Ser396) in HEK293T cells cotransfected with IRF3 and IKKε. Conditions: Homo sapiens, HEK-293T, 20 h, HEK293T cells, 20 hours; range given from about 1 μM to about 250 nM; read-out: IC50, in-situ IKKε-mediated phosphorylation of IRF3. In kind it is cell-based. The procedure:
HEK293T cells were cotransfected in a 10-cm dish with IRF3 and IKKε expression plasmids using Lipofectamine 2000 (Invitrogen, Carlsbad, Calif.). The following day, cells were replated at 20,000 per well in 96-well plates and treated with test compounds (compounds according to Formulae I and/or II) for 20 hours. Cell lysates were prepared and analyzed using an ELISA for phospho-Ser396 (anti-IRF3 capture antibody, Santa Cruz Biotechnology, Inc., Santa Cruz, Calif.; anti-p-Ser396 IRF3 detection antibody, Cell Signaling, Danvers, Mass.). pIRF3 levels in compound treated cells were normalized to DMSO treated cells (no compound). Cell viability was assayed in a parallel set of plates to monitor cytotoxic effects of the test compounds (CellTiter-Glo, Promega, Inc., Madison, Wis.). TBK1 activity was tested by Western blotting using a phospho-specific IRF7 antibody. Similar to above, HEK293T cells were transfected with IRF7 and TBK1 expression plasmids. Cells were seeded in 12-well plates at 150,000 per well and treated overnight with test compounds. Protein lysates were prepared and processed for Western blotting followed by detection using a phosphor-Ser477/Ser479 IRF7 antibody (BD Biosciences, San Jose, Calif.)
Take `COC1CN(C(=O)c2cncc(Nc3nccc(-c4ccc(OC5CCOCC5)c(C#N)c4)n3)c2)C1` [Example Compound 171, 5-[2-({5-[(3-Methoxyazetidin-1-yl)carbonyl]pyridin-3-yl}amino)pyrimidin-4-yl]-2-(tetrahydro-2H-pyran-4-yloxy)benzonitrile]: the 50% inhibitory concentration (IC50) fell in the range of 250 to 1000 nM.

For `N#Cc1cc(-c2ccnc(Nc3ccnc(N4CCC[C@H]4CO)c3)n2)ccc1OC1CCOCC1` [Example Compound 180, 5-[2-({2-[(2S)-2-(Hydroxymethyl)pyrrolidin-1-yl]pyridin-4-yl}amino)pyrimidin-4-yl]-2-(tetrahydro-2H-pyran-4-yloxy)benzonitrile], the IC50 was in the range of 250 to 1000 nM.

With `CN(C)c1ccc(Nc2nccc(-c3ccc(OC4CCN(C(=O)CO)C4)c(C#N)c3)n2)cn1` (stereo not shown) [Example Compound 192, 5-(2-{[6-(Dimethylamino)pyridin-3-yl]amino}pyrimidin-4-yl)-2-{[1-(hydroxyacetyl)pyrrolidin-3-yl]oxy}benzonitrile], the IC50 lay in the range of 250 to 1000 nM.

Take `CNCc1cncc(Nc2nccc(-c3ccc(OC4CCOCC4)c(C#N)c3)n2)c1` [Example Compound 203, 5-[2-({5-[(Methylamino)methyl]pyridin-3-yl}amino)pyrimidin-4-yl]-2-(tetrahydro-2H-pyran-4-yloxy)benzonitrile]: the concentration for half-maximal inhibition (IC50) fell in the range of 250 to 1000 nM.

In the case of `COCCNc1cc(Nc2nccc(-c3ccc(NC(=O)C4CC4)c(C#N)c3)n2)ccn1` [Example Compound 242, N-{2-Cyano-4-[2-({2-[(2-methoxyethyl)amino]pyridin-4-yl}amino)pyrimidin-4-yl]phenyl}cyclopropanecarboxamide], the IC50 was in the range of 250 to 1000 nM.

The same assay, now with this note: Homo sapiens, HEK-293T, 20 h, HEK293T cells, 20 hours; read-out: IC50, in-situ IKKε-mediated phosphorylation of IRF3.
`N#Cc1cc(-c2ccnc(Nc3ccc(C4CC4)nc3)n2)ccc1NC(=O)C1CC1` [Example Compound 140, N-(2-Cyano-4-{2-[(6-cyclopropylpyridin-3-yl)amino]pyrimidin-4-yl}phenyl)cyclopropanecarboxamide]: the IC50 is below 100 nM.

In the case of `CN(C)c1ccc(Nc2nccc(-c3ccc(OC4CCOCC4)c(C#N)c3)n2)cn1` [Example Compound 152, 5-(2-{[6-(Dimethylamino)pyridin-3-yl]amino}pyrimidin-4-yl)-2-(tetrahydro-2H-pyran-4-yloxy)benzonitrile], the IC50 lay within 100 to 250 nM.

Turning to `CCN(CC)c1ccc(Nc2nccc(-c3ccc(OC4CCOCC4)c(C#N)c3)n2)cn1` [Example Compound 153, 5-(2-{[6-(Diethylamino)pyridin-3-yl]amino}pyrimidin-4-yl)-2-(tetrahydro-2H-pyran-4-yloxy)benzonitrile], the IC50 lay within 100 to 250 nM.

With `N#Cc1cc(-c2ccnc(Nc3ccc(C(=O)N4CCN(CCO)CC4)s3)n2)ccc1OC1CCOCC1` [Example Compound 163, 5-{2-[(5-{[4-(2-Hydroxyethyl)piperazin-1-yl]carbonyl}thiophen-2-yl)amino]pyrimidin-4-yl}-2-(tetrahydro-2H-pyran-4-yloxy)benzonitrile], the half-inhibitory concentration (IC50) lay in the range of 100 to 250 nM.

For `CN(C)c1ccc(-c2ccc(Nc3nccc(-c4ccc(OC5CCOCC5)c(C#N)c4)n3)cn2)cn1` [Example Compound 169, 5-(2-{[6′-(Dimethylamino)-2,3′-bipyridin-5-yl]amino}pyrimidin-4-yl)-2-(tetrahydro-2H-pyran-4-yloxy)benzonitrile], the concentration for half-maximal inhibition (IC50) was 1000 to 5000 nM.

In the case of `N#Cc1cc(-c2ccnc(Nc3cncc(C(=O)N4CCOCC4)c3)n2)ccc1OC1CCOCC1` [Example Compound 172, 5-(2-{[5-(Morpholin-4-ylcarbonyl)pyridin-3-yl]amino}pyrimidin-4-yl)-2-(tetrahydro-2H-pyran-4-yloxy)benzonitrile], the IC50 was in the range of 1000 to 5000 nM.

As to `N#Cc1cc(-c2ccnc(Nc3cncc(C(=O)N4CCN(CCO)CC4)c3)n2)ccc1OC1CCOCC1` [Example Compound 174, 5-{2-[(5-{[4-(2-Hydroxyethyl)piperazin-1-yl]carbonyl}pyridin-3-yl)amino]pyrimidin-4-yl}-2-(tetrahydro-2H-pyran-4-yloxy)benzonitrile], the IC50 fell in the range of 1000 to 5000 nM.

For the compound `N#Cc1cc(-c2ccnc(Nc3ccc(N4CCC(N5CCOCC5)C4)nn3)n2)ccc1OC1CCOCC1` (stereo not shown) [Example Compound 177, 5-[2-({6-[3-(Morpholin-4-yl)pyrrolidin-1-yl]pyridazin-3-yl}amino)pyrimidin-4-yl]-2-(tetrahydro-2H-pyran-4-yloxy)benzonitrile], the 50% inhibitory concentration (IC50) fell in the range of 1000 to 5000 nM.

Take `COC1CCN(c2cc(Nc3nccc(-c4ccc(OC5CCOCC5)c(C#N)c4)n3)ccn2)C1` (stereo not shown) [Example Compound 181, 5-(2-{[2-(3-Methoxypyrrolidin-1-yl)pyridin-4-yl]amino}pyrimidin-4-yl)-2-(tetrahydro-2H-pyran-4-yloxy)benzonitrile]: the half-inhibitory concentration (IC50) lay within 1000 to 5000 nM.

On to `N#Cc1cc(-c2ccnc(Nc3cncc(CN4CCN(CCO)CC4)c3)n2)ccc1OC1CCOCC1` [Example Compound 186, 5-{2-[(5-{[4-(2-Hydroxyethyl)piperazin-1-yl]methyl}pyridin-3-yl)amino]pyrimidin-4-yl}-2-(tetrahydro-2H-pyran-4-yloxy)benzonitrile], for which the IC50 fell in the range of 1000 to 5000 nM.

Consider `CN(C)Cc1cncc(Nc2nccc(-c3ccc(OC4CCOCC4)c(C#N)c3)n2)c1` [Example Compound 201, 5-[2-({5-[(Dimethylamino)methyl]pyridin-3-yl}amino)pyrimidin-4-yl]-2-(tetrahydro-2H-pyran-4-yloxy)benzonitrile], for which the IC50 fell in the range of 100 to 250 nM.

As for `CNCc1cncc(Nc2nccc(-c3ccc(OC4CCOCC4)c(C#N)c3)n2)c1` [Example Compound 202, 5-[2-({5-[(Methylamino)methyl]pyridin-3-yl}amino)pyrimidin-4-yl]-2-(tetrahydro-2H-pyran-4-yloxy)benzonitrile], the half-inhibitory concentration (IC50) lay within 100 to 250 nM.

Take `N#Cc1cc(-c2ccnc(Nc3ccc(N4CCOCC4)cn3)n2)ccc1OC1CCOCC1` [Example Compound 216, 5-(2-{[5-(Morpholin-4-yl)pyridin-2-yl]amino}pyrimidin-4-yl)-2-(tetrahydro-2H-pyran-4-yloxy)benzonitrile]: the IC50 lay within 1000 to 5000 nM.

For `N#Cc1cc(-c2ccnc(Nc3ccnc(C(=O)N4CCCC4)c3)n2)ccc1OC1CCN(C(=O)CO)CC1` [Example Compound 233, 2-{[1-(Hydroxyacetyl)piperidin-4-yl]oxy}-5-(2-{[2-(pyrrolidin-1-ylcarbonyl)pyridin-4-yl]amino}pyrimidin-4-yl)benzonitrile], the IC50 lay within 1000 to 5000 nM.

Turning to `COC1CN(C(C)c2ccc(Nc3nccc(-c4ccc(OC5CCOCC5)c(C#N)c4)n3)cn2)C1` (stereo not shown) [Example Compound 234, 5-[2-({6-[1-(3-Methoxyazetidin-1-yl)ethyl]pyridin-3-yl}amino)pyrimidin-4-yl]-2-(tetrahydro-2H-pyran-4-yloxy)benzonitrile], the half-maximal inhibitory concentration (IC50) was 100 to 250 nM.

For the compound `Cc1ccc(Nc2nccc(-c3ccc(OC4CCN(C(=O)[C@H](C)O)CC4)c(C#N)c3)n2)c[n+]1[O-]` [Example Compound 235, 2-({1-[(2S)-2-Hydroxypropanoyl]piperidin-4-yl}oxy)-5-{2-[(6-methyl-1-oxidopyridin-3-yl)amino]pyrimidin-4-yl}benzonitrile], the 50% inhibitory concentration (IC50) fell in the range of 1000 to 5000 nM.

Take `N#Cc1cc(-c2ccnc(Nc3ccc[n+]([O-])c3)n2)ccc1OC1CCOCC1` [Example Compound 236, 5-{2-[(1-Oxidopyridin-3-yl)amino]pyrimidin-4-yl}-2-(tetrahydro-2H-pyran-4-yloxy)benzonitrile]: the IC50 was in the range of 1000 to 5000 nM.

For the origin of these results see patent US20140288044A1, “COMPOSITIONS AND THERAPEUTIC USES OF IKK-RELATED KINASE EPSILON AND TANKBINDING KINASE 1 INHIBITORS” (Alzheimer's Institute of America, Inc., priority 2011, published 2014).
